Laboratory results: patent US9096565B2, “Inhibitors of histone deacetylase” (MethylGene Inc., priority 2007, dated 2015)

molecular target: one or more of HDAC-4, HDAC-5, HDAC-6, HDAC-7, HDAC-8, HDAC-9, HDAC-10 and HDAC-11; assay: Inhibition of histone deacetylase enzymatic activity (summary statement over isoforms); format: biochemical; conditions: Table 3, selected examples; HDAC isoform not given
Procedure, shortened: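 Activity was measured as deacetylation of the fluorogenic substrate Boc-Lys(trifluoroacetyl)-AMC over 20-30 min at 37 °C, after a 5 min room-temperature preincubation of enzyme with compound. Trypsin (1 mg/mL) with a reference HDAC inhibitor ended the reaction.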

IC50, 1000 to 15000 nM:
CC(Oc1cccc(C(C(=O)NO)c2ccccc2)c1)c1ccccc1 (centres unmarked) [Compound 3-8, N-hydroxy-2-phenyl-2-(3-(1-phenylethoxy)phenyl)acetamide]
O=C(Nc1cccc(C(C(=O)NO)c2ccccc2)c1)c1ccnc(Cl)c1 (centres unmarked) [Compound 3-14, 2-chloro-N-(3-(2-(hydroxyamino)-2-oxo-1-phenylethyl)phenyl)isonicotinamide]
CC(COc1ccc(C(C(=O)NO)c2ccccc2)cc1)CN(C)C (centres unmarked) [Compound 3-18, 2-(4-(3-(dimethylamino)-2-methylpropoxy)phenyl)-N-hydroxy-2-phenylacetamide]
COc1cccc(C(C(=O)NO)c2ccccc2)c1 (centres unmarked) [Compound 3-21, N-hydroxy-2-(3-methoxyphenyl)-2-phenylacetamide]
C=CCOc1cccc(C(C(=O)NO)c2ccccc2)c1 (centres unmarked) [Compound 3-24, 2-(3-(allyloxy)phenyl)-N-hydroxy-2-phenylacetamide]
O=C(NO)C(c1ccccc1)c1cccc(OCC2CC2)c1 (centres unmarked) [Compound 3-25, 2-(3-(cyclopropylmethoxy)phenyl)-N-hydroxy-2-phenylacetamide]
C=CCCOc1cccc(C(C(=O)NO)c2ccccc2)c1 (centres unmarked) [Compound 3-26, 2-(3-(but-3-enyloxy)phenyl)-N-hydroxy-2-phenylacetamide]
COCCOc1cccc(C(C(=O)NO)c2ccccc2)c1 (centres unmarked) [Compound 3-27, N-hydroxy-2-(3-(2-methoxyethoxy)phenyl)-2-phenylacetamide]
O=C(NO)C(c1ccccc1)c1cccc(OC2CCCC2)c1 (centres unmarked) [Compound 3-29, 2-(3-(cyclopentyloxy)phenyl)-N-hydroxy-2-phenylacetamide]
CC(C)CCOc1cccc(C(C(=O)NO)c2ccccc2)c1 (centres unmarked) [Compound 3-30, N-hydroxy-2-(3-(isopentyloxy)phenyl)-2-phenylacetamide]
CCC(CC)COc1cccc(C(C(=O)NO)c2ccccc2)c1 (centres unmarked) [Compound 3-31, 2-(3-(2-ethylbutoxy)phenyl)-N-hydroxy-2-phenylacetamide]
O=C(NO)C(c1ccccc1)c1cccc(OCC2CCCCC2)c1 (centres unmarked) [Compound 3-32, 2-(3-(cyclohexylmethoxy)phenyl)-N-hydroxy-2-phenylacetamide]
Cc1cccc(COc2cccc(C(C(=O)NO)c3ccccc3)c2)c1 (centres unmarked) [Compound 3-33, N-hydroxy-2-(3-(3-methylbenzyloxy)phenyl)-2-phenylacetamide]
CC(C)CCOc1ccc(C(C(=O)NO)c2ccccc2)cc1 (centres unmarked) [Compound 3-54, N-hydroxy-2-(4-(isopentyloxy)phenyl)-2-phenylacetamide]

IC50, < 1000 nM:
COc1ccc(-c2ccc(C(C(=O)NO)c3ccccc3)cc2)cc1OC (centres unmarked) [Compound 2-114, 2-(3′,4′-dimethoxybiphenyl-4-yl)-N-hydroxy-2-phenylacetamide]
CCSc1ccc(-c2ccc(C(C(=O)NO)c3ccccc3)cc2)cc1 (centres unmarked) [Compound 2-115, 2-(4′-(ethylthio)biphenyl-4-yl)-N-hydroxy-2-phenylacetamide]
CN(C)C(=O)c1ccc(-c2ccc(C(C(=O)NO)c3ccccc3)cc2)cc1 (centres unmarked) [Compound 2-116, 4′-(2-(hydroxyamino)-2-oxo-1-phenylethyl)-N,N-dimethylbiphenyl-4-carboxamide]
O=C(NO)C(c1ccccc1)c1ccc(-c2ccc(Oc3ccccc3)cc2)cc1 (centres unmarked) [Compound 2-117, N-hydroxy-2-(4′-phenoxybiphenyl-4-yl)-2-phenylacetamide]
CC(C)=CCOc1cccc(C(C(=O)NO)c2ccccc2)c1 (centres unmarked) [Compound 3-5, N-hydroxy-2-(3-(3-methylbut-2-enyloxy)phenyl)-2-phenylacetamide]
COc1ccc(COc2cccc(C(C(=O)NO)c3ccccc3)c2)cc1 (centres unmarked) [Compound 3-6, N-hydroxy-2-(3-(4-methoxybenzyloxy)phenyl)-2-phenylacetamide]
O=C(NO)C(c1ccccc1)c1cccc(OC/C=C/c2ccccc2)c1 (centres unmarked) [Compound 3-9, (E)-2-(3-(cinnamyloxy)phenyl)-N-hydroxy-2-phenylacetamide]
O=C(NO)C(c1ccccc1)c1cccc(OCc2cccc(Cl)c2)c1 (centres unmarked) [Compound 3-10, 2-(3-(3-chlorobenzyloxy)phenyl)-N-hydroxy-2-phenylacetamide]
O=C(NO)C(c1ccccc1)c1cccc(N2CCN(Cc3ccncc3)CC2)c1 (centres unmarked) [Compound 3-12, N-hydroxy-2-phenyl-2-(3-(4-(pyridin-4-ylmethyl)piperazin-1-yl)phenyl)acetamide]
CC(=O)Nc1ccc(C(C(=O)NO)c2ccccc2)cc1 (centres unmarked) [Compound 3-13, 2-(4-acetamidophenyl)-N-hydroxy-2-phenylacetamide]
CN(C)CCCOc1cccc(C(C(=O)NO)c2ccccc2)c1 (centres unmarked) [Compound 3-15, 2-(3-(3-(dimethylamino)propoxy)phenyl)-N-hydroxy-2-phenylacetamide]
CN(C)CCCOc1ccc(C(C(=O)NO)c2ccccc2)cc1 (centres unmarked) [Compound 3-16, 2-(4-(3-(dimethylamino)propoxy)phenyl)-N-hydroxy-2-phenylacetamide]
CC(COc1cccc(C(C(=O)NO)c2ccccc2)c1)CN(C)C (centres unmarked) [Compound 3-17, 2-(3-(3-(dimethylamino)-2-methylpropoxy)phenyl)-N-hydroxy-2-phenylacetamide]
O=C(NO)C(c1ccccc1)c1cccc(OCCN2CCCC2)c1 (centres unmarked) [Compound 3-19, N-hydroxy-2-phenyl-2-(3-(2-(pyrrolidin-1-yl)ethoxy)phenyl)acetamide]
CN1CCCC1CCOc1cccc(C(C(=O)NO)c2ccccc2)c1 (centres unmarked) [Compound 3-20, N-hydroxy-2-(3-(2-(1-methylpyrrolidin-2-yl)ethoxy)phenyl)-2-phenylacetamide]
CCOc1cccc(C(C(=O)NO)c2ccccc2)c1 (centres unmarked) [Compound 3-22, 2-(3-ethoxyphenyl)-N-hydroxy-2-phenylacetamide]
O=C(NO)C(c1ccccc1)c1cccc(OCc2ccccc2F)c1 (centres unmarked) [Compound 3-34, 2-(3-(2-fluorobenzyloxy)phenyl)-N-hydroxy-2-phenylacetamide]
Cc1cc(C)cc(COc2cccc(C(C(=O)NO)c3ccccc3)c2)c1 (centres unmarked) [Compound 3-35, 2-(3-(3,5-dimethylbenzyloxy)phenyl)-N-hydroxy-2-phenylacetamide]
O=C(NO)C(c1ccccc1)c1cccc(OCCCc2ccccc2)c1 (centres unmarked) [Compound 3-36, N-hydroxy-2-phenyl-2-(3-(3-phenylpropoxy)phenyl)acetamide]
O=C(NO)C(c1ccccc1)c1cccc(OCc2cccc(C(F)(F)F)c2)c1 (centres unmarked) [Compound 3-42, N-hydroxy-2-phenyl-2-(3-(3-(trifluoromethyl)benzyloxy)phenyl)acetamide]
COc1ccc(C(C(=O)NO)c2ccccc2)cc1 (centres unmarked) [Compound 3-43, N-hydroxy-2-(4-methoxyphenyl)-2-phenylacetamide]
CCOc1ccc(C(C(=O)NO)c2ccccc2)cc1 (centres unmarked) [Compound 3-44, 2-(4-ethoxyphenyl)-N-hydroxy-2-phenylacetamide]
C#CCOc1ccc(C(C(=O)NO)c2ccccc2)cc1 (centres unmarked) [Compound 3-45, N-hydroxy-2-phenyl-2-(4-(prop-2-ynyloxy)phenyl)acetamide]
C=CCOc1ccc(C(C(=O)NO)c2ccccc2)cc1 (centres unmarked) [Compound 3-46, 2-(4-(allyloxy)phenyl)-N-hydroxy-2-phenylacetamide]
CC(C)Oc1ccc(C(C(=O)NO)c2ccccc2)cc1 (centres unmarked) [Compound 3-47, N-hydroxy-2-(4-isopropoxyphenyl)-2-phenylacetamide]
C=CCCOc1ccc(C(C(=O)NO)c2ccccc2)cc1 (centres unmarked) [Compound 3-49, 2-(4-(but-3-enyloxy)phenyl)-N-hydroxy-2-phenylacetamide]
COCCOc1ccc(C(C(=O)NO)c2ccccc2)cc1 (centres unmarked) [Compound 3-50, N-hydroxy-2-(4-(2-methoxyethoxy)phenyl)-2-phenylacetamide]
Cc1noc(C)c1COc1ccc(C(C(=O)NO)c2ccccc2)cc1 (centres unmarked) [Compound 3-51, 2-(4-((3,5-dimethylisoxazol-4-yl)methoxy)phenyl)-N-hydroxy-2-phenylacetamide]
CC(C)=CCOc1ccc(C(C(=O)NO)c2ccccc2)cc1 (centres unmarked) [Compound 3-52, N-hydroxy-2-(4-(3-methylbut-2-enyloxy)phenyl)-2-phenylacetamide]
O=C(NO)C(c1ccccc1)c1ccc(OC2CCCC2)cc1 (centres unmarked) [Compound 3-53, 2-(4-(cyclopentyloxy)phenyl)-N-hydroxy-2-phenylacetamide]
CCC(CC)COc1ccc(C(C(=O)NO)c2ccccc2)cc1 (centres unmarked) [Compound 3-55, 2-(4-(2-ethylbutoxy)phenyl)-N-hydroxy-2-phenylacetamide]
CC(C)CCCOc1ccc(C(C(=O)NO)c2ccccc2)cc1 (centres unmarked) [Compound 3-56, N-hydroxy-2-(4-(4-methylpentyloxy)phenyl)-2-phenylacetamide]
O=C(NO)C(c1ccccc1)c1ccc(OCC2CCCCC2)cc1 (centres unmarked) [Compound 3-57, 2-(4-(cyclohexylmethoxy)phenyl)-N-hydroxy-2-phenylacetamide]
Cc1cccc(COc2ccc(C(C(=O)NO)c3ccccc3)cc2)c1 (centres unmarked) [Compound 3-58, N-hydroxy-2-(4-(3-methylbenzyloxy)phenyl)-2-phenylacetamide]
CC(Oc1ccc(C(C(=O)NO)c2ccccc2)cc1)c1ccccc1 (centres unmarked) [Compound 3-59, N-hydroxy-2-phenyl-2-(4-(1-phenylethoxy)phenyl)acetamide]
O=C(NO)C(c1ccccc1)c1ccc(OCc2ccccc2F)cc1 (centres unmarked) [Compound 3-60, 2-(4-(2-fluorobenzyloxy)phenyl)-N-hydroxy-2-phenylacetamide]
